# Measured values: patent US20040214832A1, “Piperazine derivative renin inhibitors” (priority 2003, published 2004)
# Target: T1, human renin (Homo sapiens, UniProt P00797)
# T1 sequence (P00797 67-406): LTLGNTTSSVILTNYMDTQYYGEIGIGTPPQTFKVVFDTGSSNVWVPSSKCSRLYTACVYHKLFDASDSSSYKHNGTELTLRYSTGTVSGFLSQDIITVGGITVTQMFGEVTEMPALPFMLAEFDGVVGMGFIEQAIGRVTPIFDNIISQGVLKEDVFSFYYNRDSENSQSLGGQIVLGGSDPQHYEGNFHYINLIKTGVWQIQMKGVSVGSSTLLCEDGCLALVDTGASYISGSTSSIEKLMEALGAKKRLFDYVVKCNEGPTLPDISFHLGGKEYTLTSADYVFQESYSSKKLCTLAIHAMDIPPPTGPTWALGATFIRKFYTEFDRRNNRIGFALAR
# Assay: Determination of renin IC50 by tGFP FRET assay
# Format: biochemical
# Details: Human recombinant renin, tandem GFP substrate 650 nM, 60 min incubation with compound, pH 7.4, 11-point curve
# Outline: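 Human recombinant renin (final 50.4 μIU) preincubated 60 min with compound (5% DMSO final) in 50 mM HEPES, 1 mM EDTA, 1% PEG 8000, 1 mM DTT, 0.1% BSA, pH 7.4, then tandem-GFP substrate added at 650 nM final. FRET fluorescence read; IC50 from 11-point curves spanning 100 μM–1 pM.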
row,SMILES,IC50 [nM]
1,"COc1ccccc1COCCCOc1ccc(N2CCNC[C@@H]2COCc2ccc3ccccc3c2)cc1 [Example 90, (2R)-1-{4-[3-(2-methoxybenzyloxy)-propoxy]-phenyl}-2-(naphthalen-2-ylmethoxymethyl)-piperazine]",1700
2,"COc1ccccc1COCCCOc1ccc(N2CCNC[C@@H]2COCc2cccc(-c3ccccc3)c2)cc1 [Example 91, (2R)-2-(biphenyl-3-ylmethoxymethyl)-1-{4-[3-(2-methoxybenzyloxy)-propoxy]-phenyl}-piperazine]",1020
3,"COc1ccccc1COCCCOc1ccc(N2C(=O)CNC[C@@H]2COc2ccc(-c3ccccc3)cc2)cc1 [Example 92, (6R)-6-(biphenyl-4-yloxymethyl)-1-(4-[3-(2-methoxybenzyloxy)-propoxy]-phenyl)-piperazin-2-one]",2520
4,"COc1ccccc1COCCCOc1ccc(N2C(=O)CNC[C@@H]2COc2ccc(NC(C)=O)cc2)cc1 [Example 93, N-[4-([2R]-1-{4-[3-(2-methoxybenzyloxy)-propoxy]-phenyl}-6-oxopiperazin-2-ylmethoxy)-phenyl]-acetamide]",> 1000
5,"COc1ccccc1COCCOCc1ccc(N2CCNC[C@@H]2COc2ccc3ccccc3c2)cc1 [Example 94, (2R)-1-{4-[2-(2-methoxybenzyloxy)-ethoxymethyl]-phenyl}-2-(naphthalene-2-yloxymethyl)-piperazine]",2550
6,"COc1ccccc1COCCCOc1ccc(N2C(=O)CNC[C@@H]2COc2ccc(C(=O)N(C)C)cc2)cc1 [Example 95, 4-([2R]-1-{4-[3-(2-methoxybenzyloxy)-propoxy]-phenyl}-6-oxopiperazin-2-ylmethoxy)-N,N-dimethyl-benzamide]",4050
7,"COC(=O)c1cc(N2C(=O)CNC[C@@H]2COc2ccc3ccccc3c2)ccc1OCCCOCc1ccccc1OC [Example 96, 2-[(5R)-3-(2-methoxybenzyloxy)-propoxy]-5-[2-(naphthalene-2-yloxymethyl)-6-oxopiperazin-1-yl]-benzoic acid methyl ester]",> 1000
8,"COc1ccccc1OCCCOCc1ccc(N2CCNC[C@@H]2COc2ccc3ccccc3c2)cc1 [Example 97, (2R)-1-(4-[3-(2-methoxyphenoxy)-propoxymethyl]-phenyl)-2-(naphthalene-2-yloxymethyl)-piperazine]",26300
9,"COc1ccccc1COCCCOc1ccc(N2C(=O)CNC[C@@H]2COc2ccc3ccccc3c2)cc1C(=O)O [Example 98, 2-[(5R)-3-(2-methoxybenzyloxy)-propoxy]-5-[2-(naphthalene-2-yloxymethyl)-6-oxopiperazin-1-yl]-benzoic acid]",> 1000
10,"COCc1ccc(N2CCNC[C@@H]2COc2ccc3ccccc3c2)cc1 [Example 99, (2R)-1-(4-methoxymethylphenyl)-2-(naphthalene-2-yloxymethyl)-piperazine]",> 1000
11,"COc1ccccc1COCCCOc1ccc(N2C(=O)CNC[C@@H]2COc2ccc3ccccc3c2)cc1Cl [Example 100, (6R)-1-(3-chloro-4-[3-(2-methoxybenzyloxy)-propoxy]-phenyl)-6-(naphthalene-2-yloxymethyl)-piperazin-2-one]",> 1000
12,"COc1ccccc1CSCCCOc1ccc(N2C(=O)CNC[C@@H]2COc2ccc3ccccc3c2)cc1 [Example 101, (6R)-1-{4-[3-(2-methoxybenzylsulfanyl)-propoxy]-phenyl}-6-(naphthalene-2-yloxymethyl)-piperazin-2-one]",> 1000
13,"COc1ccccc1CSCCCOc1ccc(N2CCNC[C@@H]2COc2ccc3ccccc3c2)cc1 [Example 102, (2R)-1-{4-[3-(2-methoxybenzylsulfanyl)-propoxy]-phenyl}-2-(naphthalene-2-yloxymethyl)-piperazine]",> 1000
14,COc1ccccc1CCOCCOc1ccc(N2CCNC[C@@H]2COc2ccc3ccccc3c2)cc1 [Example 104],1070
15,"COc1ccccc1COCCCOc1ccc(N2C(=O)CNC[C@@H]2COc2cccc(-c3ccccc3)c2)cc1 [Example 106, (6R)-6-(biphenyl-3-yloxymethyl)-1-{4-[3-(2-methoxybenzyloxy)-propoxy]-phenyl}-piperazin-2-one]",1510
16,"COc1ccccc1COCCCOc1ccc(N2C(=O)CNC[C@@H]2COc2ccc3ccccc3c2)cc1OC [Example 107, (6R)-1-(3-methoxy-4-[3-(2-methoxybenzyloxy)-propoxy]-phenyl)-6-(naphthalene-2-yloxymethyl)-piperazin-2-one]",537
17,"COc1ccccc1OCCCCOc1ccc(N2CCNC[C@@H]2COc2ccc3ccccc3c2)cc1 [Example 108, (2R)-1-{4-[4-(2-methoxyphenoxy)-butoxy]-phenyl}-2-(naphthalene-2-yloxymethyl)-piperazine]",1360

# These reach a lower IC50. Values come first.
row,IC50 [nM],SMILES
1,167,"COc1ccccc1COCCCOc1ccc(N2C(=O)CNC[C@@H]2COc2ccc3ccccc3c2)cc1C [Example 103, (6R)-1-{4-[3-(2-methoxybenzyloxy)-propoxy]-3-methyl-phenyl}-6-(naphthalene-2-yloxymethyl)-piperazin-2-one]"
2,225,"COc1ccc2ccc(OC[C@H]3CNCC(=O)N3c3ccc(OCCCOCc4ccccc4OC)cc3)cc2c1 [Example 105, (6R)-1-{4-[3-(2-methoxybenzyloxy)-propoxy]-phenyl}-6-(7-methoxynaphthalen-2-yloxymethyl)-piperazin-2-one]"
3,3.17,"COCCCN1CCCc2ccc(OC[C@H]3CNCC(=O)N3c3ccc(OCCCOCc4ccccc4OC)cc3)cc21 [Example 109, (6R)-1-{4-[3-(2-Methoxybenzyloxy)-propoxy]-phenyl}-6-[1-(3-methoxypropyl)-1,2,3,4-tetrahydroquinolin-7-yloxymethyl]-piperazin-2-one]"
4,4.09,"COC(=O)CN1CCCc2ccc(OC[C@H]3CNCC(=O)N3c3ccc(OCCCOCc4ccccc4OC)cc3)cc21 [Example 110, {7-[(2R)-1-{4-[3-(2-Methoxybenzyloxy)-propoxy]-phenyl}-6-oxopiperazin-2-ylmethoxy]-3,4-dihydro-2H-quinolin-1-yl}-acetic acid methyl ester]"
5,3.91,"COCCCN1C(=O)CCc2ccc(OC[C@H]3CNCC(=O)N3c3ccc(OCCCOCc4ccccc4OC)cc3)cc21 [Example 111, 7-([2R]-1-{4-[3-(2-Methoxybenzyloxy)-propoxy]-phenyl}-6-oxopiperazin-2-ylmethoxy)-1-(3-methoxypropyl)-3,4-dihydro-1H-quinolin-2-one]"
6,1.7,"COCCCN1C(=O)CCc2ccc(OC[C@@H]3CNCC(=O)N3c3ccc(OCCCOCc4ccccc4OC)cc3)cc21 [Example 112, 7-([2S]-1-{4-[3-(2-Methoxybenzyloxy)-propoxy]-phenyl}-6-oxopiperazin-2-ylmethoxy)-1′-(3-methoxypropyl)-3,4-dihydro-1H-quinolin-2-one]"
7,10,"COC(=O)Cn1ccc2cc(OC[C@@H]3CNCC(=O)N3c3ccc(OCCCOCc4ccccc4OC)cc3)ccc21 [Example 113, [5-([2S]-1-{4-[3-(2-Methoxybenzyloxy)-propoxy]-phenyl}-6-oxopiperazin-2-ylmethoxy)-indol-1-yl]-acetic acid methyl ester]"
8,4,"COC(=O)CN1C(=O)CCc2ccc(OC[C@H]3CNCC(=O)N3c3ccc(OCCCOCc4ccccc4OC)cc3)cc21 [Example 116, [7-([2R]-1-{4-[3-(2-Methoxybenzyloxy)-propoxy]-phenyl}-6-oxopiperazin-2-ylmethoxy)-2-oxo-3,4-dihydro-2H-quinolin-1-yl]-acetic acid methyl ester]"
9,6.83,"COC(=O)CN1C(=O)COc2ccc(OC[C@H]3CNCC(=O)N3c3ccc(OCCCOCc4ccccc4OC)cc3)cc21 [Example 118, [6-([2R]-1-{4-[3-(2-Methoxybenzyloxy)-propoxy]-phenyl}-6-oxo-piperazin-2-ylmethoxy)-3-oxo-2,3-dihydro-benzo[1,4]oxazin-4-yl]-acetic acid methyl ester]"
10,1.62,"COC(=O)CCn1ccc2cc(OC[C@H]3CNCC(=O)N3c3ccc(OCCCOCc4ccccc4OC)cc3)ccc21 [Example 119, 3-[5-([2R]-1-{4-[3-(2-Methoxybenzyloxy)-propoxy]-phenyl}-6-oxopiperazin-2-ylmethoxy)-indol-1-yl]-propionic acid methyl ester]"
11,4.66,"COc1ccccc1COCCCOc1ccc(N2C(=O)CNC[C@@H]2COc2ccc3c(ccn3CCNC(C)=O)c2)cc1 [Example 120, N-{2-[5-([2R]-1-{4-[3-(2-Methoxybenzyloxy)-propoxy]-phenyl}-6-oxopiperazin-2-ylmethoxy)-indol-1-yl]-ethyl}-acetamide]"
12,6,"COC(=O)Cn1c(C)cc2cc(OC[C@H]3CNCC(=O)N3c3ccc(OCCCOCc4ccccc4OC)cc3)ccc21 [Example 121, [5-([2R]-1-{4-[3-(2-Methoxybenzyloxy)-propoxy]-phenyl}-6-oxopiperazin-2-ylmethoxy)-2-methyl-indol-1-yl]-acetic acid methyl ester]"
13,0.36,"COC(=O)CCN1CCCc2ccc(OC[C@H]3CNCC(=O)N3c3ccc(OCCCOCc4ccccc4OC)cc3)cc21 [Example 122, 3-[7-([2R]-1-{4-[3-(2-Methoxybenzyloxy)-propoxy]-phenyl}-6-oxopiperazin-2-ylmethoxy)-3,4-dihydro-2H-quinolin-1-yl]-propionic acid methyl ester]"
